In US6943178B2 (Wyeth, priority 2001, dated 2005):
Counter-ions that a name gives are not always drawn. Like-named read-outs stand apart in the source and are kept apart here.

Experiments:
human 5-HT1A receptors = target: T1, human 5-HT1A receptors (Homo sapiens, UniProt P08908); assay: [3H] 8-OHDPAT displacement, 5-HT1A receptor affinity; type: binding
T1 construct: expressed in transfected cells; host or cells: CHO cells
T1 sequence (P08908 1-422): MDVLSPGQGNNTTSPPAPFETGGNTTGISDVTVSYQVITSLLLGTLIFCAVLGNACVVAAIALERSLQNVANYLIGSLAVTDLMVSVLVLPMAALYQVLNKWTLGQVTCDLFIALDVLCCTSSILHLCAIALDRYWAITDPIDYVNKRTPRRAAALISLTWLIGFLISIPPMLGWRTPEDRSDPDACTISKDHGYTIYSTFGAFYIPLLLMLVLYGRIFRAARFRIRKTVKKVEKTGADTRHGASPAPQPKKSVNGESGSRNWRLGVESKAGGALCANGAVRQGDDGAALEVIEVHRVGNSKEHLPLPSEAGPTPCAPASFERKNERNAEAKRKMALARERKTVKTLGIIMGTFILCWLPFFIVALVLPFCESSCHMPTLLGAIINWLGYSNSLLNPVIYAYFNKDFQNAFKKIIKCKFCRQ
Text: High affinity for the serotonin 5-HT1A receptor was established by testing the claimed compound's ability to displace [^3H] 8-OHDPAT (dipropylaminotetralin) from the 5-HT1A serotonin receptor following a modification of the procedure of Hall et al., J. Neurochem. 44, 1685 (1985) which utilizes CHO cells stably transfected with human 5-HT1A receptors.

serotonin transporter = target: T2, serotonin transporter (Rattus norvegicus, UniProt P31652); assay: 3H-paroxetine displacement, serotonin transporter affinity; type: binding
T2 construct: displace ^3H-paroxetine from male rat frontal cortical membranes; from tissue; host or cells: male rat frontal cortex membranes
T2 sequence (P31652 whole entry): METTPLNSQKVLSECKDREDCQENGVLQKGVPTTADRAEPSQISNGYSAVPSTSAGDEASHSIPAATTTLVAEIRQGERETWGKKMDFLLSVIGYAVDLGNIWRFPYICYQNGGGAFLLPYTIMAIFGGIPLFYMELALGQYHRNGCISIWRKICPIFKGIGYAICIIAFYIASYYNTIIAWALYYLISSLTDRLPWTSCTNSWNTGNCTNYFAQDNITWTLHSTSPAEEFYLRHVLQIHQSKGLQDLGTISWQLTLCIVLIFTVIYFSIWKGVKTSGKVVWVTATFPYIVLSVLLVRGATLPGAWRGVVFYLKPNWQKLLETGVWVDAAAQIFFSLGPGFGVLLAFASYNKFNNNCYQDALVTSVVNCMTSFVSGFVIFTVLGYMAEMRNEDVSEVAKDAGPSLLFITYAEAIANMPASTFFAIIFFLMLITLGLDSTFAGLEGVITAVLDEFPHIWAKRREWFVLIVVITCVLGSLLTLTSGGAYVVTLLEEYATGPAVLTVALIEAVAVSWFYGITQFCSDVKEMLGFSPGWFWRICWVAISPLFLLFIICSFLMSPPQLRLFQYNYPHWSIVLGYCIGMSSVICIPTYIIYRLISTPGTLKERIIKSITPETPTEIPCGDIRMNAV

[1] = target: T3, cloned human 5-HT1A receptors (Homo sapiens, UniProt P08908); assay: 35S-GTPγS binding assay, 5-HT1A antagonist activity; type: biochemical
T3 construct: expressed in transfected cells
T3 sequence (P08908 1-422): T1 sequence (P08908 1-422)
Description: Antagonist activity at 5-HT1A receptors was established by using a ^35S-GTPγS binding assay similar to that used by Lazareno and Birdsall (Br. J. Pharmacol. 109: 1120, 1993), in which the test compound's ability to affect the binding of ^35S-GTPγS to membranes containing cloned human 5-HT1A receptors was determined. Agonists produce an increase in binding whereas antagonists produce no increase but rather reverse the effects of the standard agonist 8-OHDPAT. The test compound's maximum inhibitory effect is represented as the Imax, while its potency is defined by the IC50.

[2] = 35S-GTPγS binding, reversal of the effects of the standard agonist 8-OHDPAT
[3] = 35S-GTPγS binding, reversal of the effects of the standard agonist 8-OHDPAT, read-out: 5-HT1A Function IC50

Row | SMILES | melting point [°C] | Ki (human 5-HT1A receptors) [nM] | Ki (serotonin transporter) [nM] | IC50 [1] [nM] | 5-HT1A Function Imax (maximum inhibitory effect) [1, 2] | IC50 [1, 3] [nM] | Ki (human 5-HT1A receptors; displacement of [3H] 8-OHDPAT, CHO cells stably transfected with human 5-HT1A receptors, read-out: 5-HT1A Receptor Affinity KI) [nM]
1 | O=c1ccoc2c3c(ccc12)OC(CN1CC=C(c2c[nH]c4ccc(F)cc24)CC1)CO3 (stereo not drawn) (as salt: fumarate) (hydrate or solvate) [Example 1, 3-[4-(5-Fluoro-1H-indol-3-yl)-3,6-dihydro-2H-pyridin-1-ylmethyl]-2,3-dihydro-7H-pyrano[2,3-f][1,4]benzodioxin-7-one] | 106 to 108 |  |  |  |  |  | 
2 | Fc1ccc2[nH]cc(C3=CCN(CC4COc5ccc6c(c5O4)OCCC6)CC3)c2c1 (stereo not drawn) (as salt: oxalate) [Example 2, 5-Fluoro-3-[1,2,3,6-tetrahydro-1-[(2,3,8,9-tetrahydro-7H-pyrano[2,3-f][1,4]benzodioxin-2-yl)methyl]-4-pyridinyl]-1H-indole] | 146 to 148 |  |  |  |  |  | 
3 | C1=C(c2c[nH]c3ccccc23)CCN(CC2COc3ccc4c(c3O2)OCCC4)C1 (stereo not drawn) (as salt: oxalate) [Example 4, 3-{1-(2,3,8,9-Tetrahydro-7H-[1,4]dioxino[2,3-h]chromen-2-ylmethyl)-1,2,3,6-tetrahydropyridin-4-yl}-1H-indole] | 140 |  |  |  |  |  | 
4 | O=c1ccoc2c3c(ccc12)OC[C@H](CN1CC=C(c2c[nH]c4ccc(F)cc24)CC1)O3 [Example 1] |  | 119 | 2.69 | 2.37 | 100 |  | 
5 | Fc1ccc2[nH]cc(C3=CCN(CC4COc5ccc6c(c5O4)OCCC6)CC3)c2c1 (stereo not drawn) [Example 2, 5-Fluoro-3-[1,2,3,6-tetrahydro-1-[(2,3,8,9-tetrahydro-7H-pyrano[2,3-f][1,4]benzodioxin-2-yl)methyl]-4-pyridinyl]-1H-indole] |  | 27.6 | 2.57 |  | 100 | 0.56 | 
6 | O=C1CCOc2c1ccc1c2OC(CN2CC=C(c3c[nH]c4ccccc34)CC2)CO1 (stereo not drawn) [Example 3, 3-[4-(1H-indol-3-yl)-3,6-dihydro-2H-pyridin-1-ylmethyl]-2,3,6,7-tetrahydro-1,4,5-trioxa-phenanthren-8-one] | 210 |  | 2.74 |  |  |  | 156
7 | C1=C(c2c[nH]c3ccccc23)CCN(CC2COc3ccc4c(c3O2)OCCC4)C1 (stereo not drawn) [Example 4, 3-{1-(2,3,8,9-Tetrahydro-7H-[1,4]dioxino[2,3-h]chromen-2-ylmethyl)-1,2,3,6-tetrahydropyridin-4-yl}-1H-indole] |  | 44.1 | 0.9 |  | 87.0 | 0.38 | 
